36 compounds from US4261989A, “Geldanamycin derivatives and antitumor drug” (Kaken Chemical Co. Ltd., priority 1979, dated 1981) can be followed below.

The first test deals with cancer cell W-2K-11. In words: Growth inhibition of cancer cell W-2K-11 (percent inhibition of cell multiplication, Table 2). The test is classed as cell-based, mouse. The following applies: Mus musculus, 48 h, read-out: Percent inhibition (%). The protocol:
Cancer cell W-2K-11 was obtained by transforming fibroblast C3H-2K clone derived from kidney of mouse by cancerogenic virus. The cancer cell W-2K-11 was cultured by the following method.
(1) Preparation of culture medium
9.4 Gram of Eagle's MEM culture media (manufactured by Nissui Seiyaku K. K.) was dissolved in 900 ml. of distilled water and the solution was sterilized under high pressure at 120° C. for 15 minutes and cooled. 100 Ml. of calf serum and 3-5 ml. of 10% aqueous solution of sodium bicarbonate were added to the solution to adjust pH to 7.1-7.2. 10 Ml. of an aqueous solution of L-glutamine (2.92 g./100 ml.) filtered by a millipore filter was added just before the use of the solution as culture medium.
(2) Preparation of transplanted cell solution
The cancer cell W-2K-11 stored in a freezer at -80° C. was melted at room temperature and treated by a centrifugal separator at 670 g. for 5 minutes. The precipitated cell was dispersed in 50 ml. of the culture medium (1). The suspension was charged into Roux flask and cultured at 37° C. The multiplication of the cells was initiated and accomplished after 3 to 4 days. The cultured mixture was decanted and 10 ml. of 0.2% trypsin solution was added and the mixture was kept at room temperature for 2 to 3 minutes and the trypsin mixture was decanted and then, 50 ml. of the culture medium (1) was added to prepare a suspension of cells.
(3) Incubation of cells and addition of sample
1.8 Ml. of the suspension of cells (2) was charged into each Petri dish and incubated in a carbon dioxide gas incubator (5% of CO2; 95% of air) at 37° C. Twenty four hours after the initiation of the incubation, 0.2 ml. of each ethanol solution of each sample was added, and the incubation was continued. Forty eight hours after the addition of the sample, numbers of survival cells were counted under a microscopic observation and each percent inhibition of cell multiplication was calculated. [formula]
Regarding `COC1=C2CC(C)CC(OC)C(O)C(C)C=C(C)C(OC(N)=O)C(OC)C=CC=C(C)C(=O)NC(=C(I)C1=O)C2=O` (stereo not shown) [Example 38, 19-iodo-Geldanamycin], the inhibition at 5 µg/mL amounted to 95%.
Take `COC1/C=C\C=C(/C)C(=O)NC2=CC(=O)C(NCC(C)C)=C(CC(C)CC(OC)C(O)C(C)/C=C(\C)C1OC(N)=O)C2=O` (stereo not shown) [Example 12]: the inhibition at 1 µg/mL came to 90%.
The same measure, in the same setting: then `CCCCCNC1=C2CC(C)CC(OC)C(O)C(C)/C=C(\C)C(OC(N)=O)C(OC)/C=C\C=C(/C)C(=O)NC(=CC1=O)C2=O` (stereo not shown) [Example 6], with 90%; and `COC1/C=C\C=C(/C)C(=O)NC2=CC(=O)C(NCCCl)=C(CC(C)CC(OC)C(O)C(C)/C=C(\C)C1OC(N)=O)C2=O` (stereo not shown) [Example 20], with 98%.
For the compound `COC1C=CC=C(C)C(=O)NC2=CC(=O)C(NCCc3ccccn3)=C(CC(C)CC(OC)C(O)C(C)C=C(C)C1OC(N)=O)C2=O` (stereo not shown) [Example 31], the inhibition at 5 µg/mL was determined as 93%.
Consider `CCCCCCCCCCNC1=C2CC(C)CC(OC)C(O)C(C)/C=C(\C)C(OC(N)=O)C(OC)/C=C\C=C(/C)C(=O)NC(=CC1=O)C2=O` (stereo not shown) [Example 10], for which the inhibition at 10 µg/mL amounted to 48%.
In the case of `CNC(=O)OC1C(C)=CC(C)C(O)C(OC)CC(C)CC2=C(OC)C(=O)C=C(N=C(OC)C(C)=CC=CC1OC)C2=O` (stereo not shown) [Example 44, 1-O-methyl-7-OCONH-methyl-Geldanamycin], the inhibition at 1 µg/mL amounted to 94% and the inhibition at 10 µg/mL was 80%.
As to `COC1C=CC=C(C)C(=O)NC2=CC(=O)C(NCc3ccncc3)=C(CC(C)CC(OC)C(O)C(C)C=C(C)C1OC(N)=O)C2=O` (stereo not shown) [Example 30], the inhibition at 5 µg/mL is 95%.

Staying with this test, now noted: Mus musculus; concentration 0.5 μg/ml; 48 hours after addition of sample; W-2K-11 cells.
Compound `COCCNC1=C2CC(C)CC(OC)C(O)C(C)C=C(C)C(OC(N)=O)C(OC)C=CC=C(C)C(=O)NC(=CC1=O)C2=O` (stereo not shown) [Example 33] yielded an inhibition at 0.5 µg/mL of 95%.

Still in this test, the particulars now being: Mus musculus; concentration 1 μg/ml; 48 hours after addition of sample; W-2K-11 cells; read-out: Percent inhibition (%).
As for `COC1/C=C\C=C(/C)C(=O)NC2=CC(=O)C(NC3CC3)=C(CC(C)CC(OC)C(O)C(C)/C=C(\C)C1OC(N)=O)C2=O` (stereo not shown) [Example 13], the inhibition at 1 µg/mL was found to be 94%.
Turning to `CCCCNC1=C2CC(C)CC(OC)C(O)C(C)/C=C(\C)C(OC(N)=O)C(OC)/C=C\C=C(/C)C(=O)NC(=CC1=O)C2=O` (stereo not shown) [Example 5], the inhibition at 1 µg/mL is 85%.
For `COC1/C=C\C=C(/C)C(=O)NC2=CC(=O)C(NCCO)=C(CC(C)CC(OC)C(O)C(C)/C=C(\C)C1OC(N)=O)C2=O` (stereo not shown) [Example 18], the inhibition at 1 µg/mL was 98%.
`COC1C=CC=C(C)C(=O)NC2=CC(=O)C(NCc3ccccc3)=C(CC(C)CC(OC)C(O)C(C)C=C(C)C1OC(N)=O)C2=O` (stereo not shown) [Example 23]: the inhibition at 1 µg/mL was determined as 88%.
Take `C=CCNC1=C2CC(C)CC(OC)C(O)C(C)/C=C(\C)C(OC(N)=O)C(OC)/C=C\C=C(/C)C(=O)NC(=CC1=O)C2=O` (stereo not shown) [Example 22]: the inhibition at 1 µg/mL amounted to 93%.
With `CNC(=O)OC1C(C)=CC(C)C(O)C(OC)CC(C)CC2=C(OC)C(=O)C=C(NC(=O)C(C)=CC=CC1OC)C2=O` (stereo not shown) [Example 43, 7-OCONH-methyl Geldanamycin], the inhibition at 1 µg/mL came to 60%.
As for `CCCNC1=C2CC(C)CC(OC)C(O)C(C)/C=C(\C)C(OC(N)=O)C(OC)/C=C\C=C(/C)C(=O)NC(=CC1=O)C2=O` (stereo not shown) [Example 1, 17-n-propylamino-Geldanamycin], the inhibition at 1 µg/mL stood at 92%.
With `COC1/C=C\C=C(/C)C(=O)NC2=CC(=O)C(NC3CCCCC3)=C(CC(C)CC(OC)C(O)C(C)/C=C(\C)C1OC(N)=O)C2=O` (stereo not shown) [Example 15], the inhibition at 1 µg/mL worked out at 98%.
Still for that read-out and setting: then `CCCCCCCNC1=C2CC(C)CC(OC)C(O)C(C)/C=C(\C)C(OC(N)=O)C(OC)/C=C\C=C(/C)C(=O)NC(=CC1=O)C2=O` (stereo not shown) [Example 8], with 96%; and `CCCCCCNC1=C2CC(C)CC(OC)C(O)C(C)/C=C(\C)C(OC(N)=O)C(OC)/C=C\C=C(/C)C(=O)NC(=CC1=O)C2=O` (stereo not shown) [Example 7], with 90%; and `COC1/C=C\C=C(/C)C(=O)NC2=CC(=O)C(NC3CCCC3)=C(CC(C)CC(OC)C(O)C(C)/C=C(\C)C1OC(N)=O)C2=O` (stereo not shown) [Example 14], with 98%.
Turning to `COC1C=CC=C(C)C(=O)NC2=CC(=O)C(NCCc3ccccc3)=C(CC(C)CC(OC)C(O)C(C)C=C(C)C1OC(N)=O)C2=O` (stereo not shown) [Example 24], the inhibition at 1 µg/mL turned out to be 82%.

Staying with this test, now noted: Mus musculus; concentration 5 μg/ml; 48 hours after addition of sample; W-2K-11 cells; read-out: Percent inhibition (%).
As to `COC1=C2CC(C)CC(OC)C(O)C(C)C=C(C)C(OC(N)=O)C(OC)C=CC=C(C)C(=O)NC(=C(Br)C1=O)C2=O` (stereo not shown) [Example 37, 19-bromo-Geldanamycin], the inhibition at 5 µg/mL amounted to 84%.
As for `COC1=C2CC(C)CC(OC)C(O)C(C)C=C(C)C(OC(N)=O)C(OC)C=CC=C(C)C(=O)NC(=C(Cl)C1=O)C2=O` (stereo not shown) [Example 39, 19-chloro-Geldanamycin], the inhibition at 5 µg/mL was 91%.
On to `COC1/C=C\C=C(/C)C(=O)NC2=CC(=O)C(NCCN)=C(CC(C)CC(OC)C(O)C(C)/C=C(\C)C1OC(N)=O)C2=O` (stereo not shown) [Example 4], for which the inhibition at 5 µg/mL came out at 57%.
Consider `COC1C=CC=C(C)C(=O)NC2=CC(=O)C(NCCN3CCOCC3)=C(CC(C)CC(OC)C(O)C(C)C=C(C)C1OC(N)=O)C2=O` (stereo not shown) [Example 26], for which the inhibition at 5 µg/mL was 93%.
For the compound `COC1C=CC=C(C)C(=O)NC2=CC(=O)C(NCc3ccccn3)=C(CC(C)CC(OC)C(O)C(C)C=C(C)C1OC(N)=O)C2=O` (stereo not shown) [Example 28], the inhibition at 5 µg/mL came out at 90%.
As for `CNCCNC1=C2CC(C)CC(OC)C(O)C(C)C=C(C)C(OC(N)=O)C(OC)C=CC=C(C)C(=O)NC(=CC1=O)C2=O` (stereo not shown) [Example 34], the inhibition at 5 µg/mL was 67%.
Turning to `COC1C=CC=C(C)C(=O)NC2=CC(=O)C(NCCN3CCCC3)=C(CC(C)CC(OC)C(O)C(C)C=C(C)C1OC(N)=O)C2=O` (stereo not shown) [Example 32], the inhibition at 5 µg/mL is 84%.

Still in this test, the particulars now being: Mus musculus; concentration 10 μg/ml; 48 hours after addition of sample; W-2K-11 cells; read-out: Percent inhibition (%).
With `COC1/C=C\C=C(/C)C(=O)NC2=CC(=O)C(NCCCCN)=C(CC(C)CC(OC)C(O)C(C)/C=C(\C)C1OC(N)=O)C2=O` (stereo not shown) [Example 21], the inhibition at 10 µg/mL came to 53%.
`COC1/C=C\C=C(/C)C(=O)NC2=CC(=O)C(NC3CCCCCC3)=C(CC(C)CC(OC)C(O)C(C)/C=C(\C)C1OC(N)=O)C2=O` (stereo not shown) [Example 16]: the inhibition at 10 µg/mL was determined as 98%.
Consider `CCCCCCCCNC1=C2CC(C)CC(OC)C(O)C(C)/C=C(\C)C(OC(N)=O)C(OC)/C=C\C=C(/C)C(=O)NC(=CC1=O)C2=O` (stereo not shown) [Example 9], for which the inhibition at 10 µg/mL came to 67%.
For the compound `COC1C=CC=C(C)C(=O)NC2=CC(=O)C(N3CCCC3)=C(CC(C)CC(OC)C(O)C(C)C=C(C)C1OC(N)=O)C2=O` (stereo not shown) [Example 25], the inhibition at 10 µg/mL was 97%.
For `CCCCCCCCCCCCNC1=C2CC(C)CC(OC)C(O)C(C)/C=C(\C)C(OC(N)=O)C(OC)/C=C\C=C(/C)C(=O)NC(=CC1=O)C2=O` (stereo not shown) [Example 11], the inhibition at 10 µg/mL was 79%.
Same read-out and setting: in the case of `CNC(=O)OC1C(C)=CC(C)C(O)C(OC)CC(C)CC2=C(OC)C(=O)C=C(NC(=O)C(C)=CC=CC1OC)C2=O` (stereo not shown) [Example 43, 7-OCONH-methyl Geldanamycin] it was 96%; in that of `COC1/C=C\C=C(/C)C(=O)NC2=CC(=O)C(NCCOCCO)=C(CC(C)CC(OC)C(O)C(C)/C=C(\C)C1OC(N)=O)C2=O` (stereo not shown) [Example 19], 88%.
The same measure, in the same setting: then `COC1/C=C\C=C(/C)C(=O)NC2=CC(=O)C(NC3CCCC3)=C(CC(C)CC(OC)C(O)C(C)/C=C(\C)C1OC(N)=O)C2=O` (stereo not shown) [Example 14], with 97%.

The test is the same for the next values; noted with them: concentration 1 μg/ml; 48 hours after addition of sample; W-2K-11 cells.
For the compound “17-demethoxy-17,19-bisdimethylamino-Geldenamycin [Example 35]”, the “Percent inhibition (%)” value came out at 92%.

Staying with this test, now noted: concentration 5 μg/ml; 48 hours after addition of sample; W-2K-11 cells.
Take `CO[C@H]1/C=C\C=C(/C)C(=O)NC2=CC(=O)C(NCCN3CCCCC3)=C(C[C@@H](C)C[C@H](OC)[C@H](O)[C@@H](C)/C=C(\C)[C@@H]1OC(N)=O)C2=O` [Example 27]: the “Percent inhibition (%)” value amounted to 57%.

Staying with this test, now noted: concentration 10 μg/ml; 48 hours after addition of sample; W-2K-11 cells.
Regarding “17-demethoxy-17,19-bisdimethylamino-Geldenamycin [Example 35]”, the “Percent inhibition (%)” value came out at 97%.

Broadly, the inhibition is the drop in the measured response relative to a control, in per cent.
